Reference: patent US9347934B2, “Assays for identifying compounds that modulate bitter taste” (CHROMOCELL CORPORATION, priority 2011, dated 2016)
pEC50: −log10 of the molar value.

Legend:
TAS2R7 = molecular target: T1, TAS2R7 (Homo sapiens, UniProt Q9NYW3); assay: Calcium fluorescence functional assay, TAS2R7 cell line; assay type: cell-based; details: 20 mM tastant; cell line expressing human TAS2R7 and mouse Gα15
T1 construct: expressed in transfected cells
T1 sequence (Q9NYW3 1-318): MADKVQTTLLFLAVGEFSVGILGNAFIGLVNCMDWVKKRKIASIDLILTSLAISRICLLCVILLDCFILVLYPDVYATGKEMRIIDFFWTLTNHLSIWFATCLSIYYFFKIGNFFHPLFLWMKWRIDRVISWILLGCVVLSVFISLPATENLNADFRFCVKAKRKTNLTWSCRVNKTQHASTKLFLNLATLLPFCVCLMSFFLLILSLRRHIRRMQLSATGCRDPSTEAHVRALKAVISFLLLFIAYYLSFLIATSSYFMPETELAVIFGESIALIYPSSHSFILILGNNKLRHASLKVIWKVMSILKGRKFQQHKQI
Method: (§1) Accordingly, each cell line of the panel expressed a human bitter taste receptor and mouse Gα15 signaling protein.
(§2) Probenecid was not included in the load solution.
(§3) After dye loading, cell plates were placed in a fluorescent plate reader (e.g., FDSS6000 (Hamamatsu, Japan)) and receptor stimulation was measured by adding 50 ul of 3× concentrated ligand/agonist stock. Fluorescence was monitored continuously for 10 s before agonist addition and for 100-250 s after stimulation with agonist.
(§4) Receptor Activation is defined as follows: % Activation=[((Maximum signal fluorescence−Minimum signal fluorescence)−(Maximum control fluorescence−Minimum control fluorescence))/(Maximum buffer fluorescence−Minimum buffer fluorescence)]*100 Functional Response=[(Maximum signal fluorescence−Minimum signal fluorescence)−(Maximum control fluorescence−Minimum control fluorescence)] • Signal Fluorescence: refers to the change in fluorescence seen with addition of ligand • Control fluorescence: refers to the change in fluorescence seen with addition of buffer (negative control) • Calcium signals from ligand and control were normalized to the basal fluorescence of the cells prior to the stimulation.
(§5) A concentration analysis was performed and EC50 values were calculated by nonlinear regression using the formula: Y=Bottom+(Top-Bottom)/(1+10^((Log EC50-X)*Hill Slope)), X=log of dose or concentration, Y=Response (increasing as X increases), Top=maximum signal, Bottom=minimum signal.

TAS2R10 = molecular target: T2, TAS2R10 (Homo sapiens, UniProt Q9NYW0); assay: Calcium fluorescence functional assay, TAS2R10 cell line; assay type: cell-based; details: 20 mM tastant; cell line expressing human TAS2R10 and mouse Gα15
T2 construct: expressed in transfected cells
T2 sequence (Q9NYW0 1-307): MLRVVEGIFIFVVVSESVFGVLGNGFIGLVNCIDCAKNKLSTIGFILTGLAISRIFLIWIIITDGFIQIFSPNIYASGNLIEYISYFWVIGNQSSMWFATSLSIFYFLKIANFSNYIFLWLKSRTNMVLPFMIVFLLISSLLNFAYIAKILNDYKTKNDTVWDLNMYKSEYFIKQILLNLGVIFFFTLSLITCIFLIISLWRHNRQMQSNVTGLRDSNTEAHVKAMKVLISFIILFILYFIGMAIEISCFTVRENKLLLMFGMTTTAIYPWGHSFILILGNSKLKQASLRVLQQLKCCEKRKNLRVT
Method: as §1, §2, §3, §4, §5

TAS2R13 = molecular target: T3, TAS2R13 (Homo sapiens, UniProt Q9NYV9); assay: Calcium fluorescence functional assay, TAS2R13 cell line; assay type: cell-based; details: for TAS2R13 bitter taste receptor activity (changes in intracellular calcium): 20 mM tastant, cell line expressing human TAS2R13 and mouse Gα15
T3 construct: expressed in transfected cells
T3 sequence (Q9NYV9 1-303): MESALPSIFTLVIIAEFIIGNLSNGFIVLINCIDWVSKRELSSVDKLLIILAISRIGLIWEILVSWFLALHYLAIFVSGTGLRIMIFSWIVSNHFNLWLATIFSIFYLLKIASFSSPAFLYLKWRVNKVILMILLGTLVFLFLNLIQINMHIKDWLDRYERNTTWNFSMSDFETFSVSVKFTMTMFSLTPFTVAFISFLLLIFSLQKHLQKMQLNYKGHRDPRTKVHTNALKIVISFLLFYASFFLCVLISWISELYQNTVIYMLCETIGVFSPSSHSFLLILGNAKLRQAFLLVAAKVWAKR
Method: as §1, §2, §3, §4, §5

TAS2R45 = molecular target: T4, TAS2R45 (Homo sapiens, UniProt P59539); assay: Calcium fluorescence functional assay, TAS2R45 cell line; assay type: cell-based; details: 20 mM tastant; cell line expressing human TAS2R45 and mouse Gα15
T4 construct: expressed in transfected cells
T4 sequence (P59539 1-299): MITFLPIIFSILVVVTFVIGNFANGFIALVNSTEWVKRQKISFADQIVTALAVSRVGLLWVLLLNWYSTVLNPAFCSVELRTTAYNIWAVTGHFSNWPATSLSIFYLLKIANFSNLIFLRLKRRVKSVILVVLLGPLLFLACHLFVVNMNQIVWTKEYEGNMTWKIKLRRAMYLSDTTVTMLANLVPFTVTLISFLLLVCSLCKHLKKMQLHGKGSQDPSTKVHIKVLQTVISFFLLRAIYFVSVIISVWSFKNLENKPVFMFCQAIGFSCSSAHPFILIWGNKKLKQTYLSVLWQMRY
Method: as §1, §2, §3, §4, §5

TAS2R46 = molecular target: T5, TAS2R46 (Homo sapiens, UniProt P59540); assay: Calcium fluorescence functional assay, TAS2R46 cell line; assay type: cell-based; details: 20 mM tastant; cell line expressing human TAS2R46 and mouse Gα15
T5 construct: expressed in transfected cells
T5 sequence (P59540 1-309): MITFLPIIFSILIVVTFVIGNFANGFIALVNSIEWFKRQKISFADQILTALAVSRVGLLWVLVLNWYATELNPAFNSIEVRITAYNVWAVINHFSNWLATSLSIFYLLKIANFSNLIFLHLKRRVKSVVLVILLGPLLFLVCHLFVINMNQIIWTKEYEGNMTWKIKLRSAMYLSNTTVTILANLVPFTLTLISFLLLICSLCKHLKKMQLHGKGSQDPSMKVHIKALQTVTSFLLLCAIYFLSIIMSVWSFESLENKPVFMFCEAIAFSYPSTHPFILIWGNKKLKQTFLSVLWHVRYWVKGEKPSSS
Method: as §1, §2, §3, §4, §5

TAS2R55 = molecular target: T6, TAS2R55 (Homo sapiens, UniProt Q7RTR8); assay: Calcium fluorescence functional assay, TAS2R55 cell line; assay type: cell-based; details: 20 mM tastant; cell line expressing human TAS2R55 and mouse Gα15
T6 construct: expressed in transfected cells
T6 sequence (Q7RTR8 1-314): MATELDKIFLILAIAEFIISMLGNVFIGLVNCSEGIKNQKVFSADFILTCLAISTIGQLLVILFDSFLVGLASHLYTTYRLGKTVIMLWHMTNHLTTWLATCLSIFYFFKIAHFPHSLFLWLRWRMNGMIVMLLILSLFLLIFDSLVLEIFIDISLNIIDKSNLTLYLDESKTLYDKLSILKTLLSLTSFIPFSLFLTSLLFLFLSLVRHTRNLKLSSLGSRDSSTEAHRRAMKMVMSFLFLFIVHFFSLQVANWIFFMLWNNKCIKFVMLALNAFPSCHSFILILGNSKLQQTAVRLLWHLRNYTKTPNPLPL
Method: as §1, §2, §3, §4, §5

[1] = tested on: panel of twenty-five bitter taste receptor expressing cell lines; assay: Panel of twenty-five bitter receptor expressing cell lines exposed to 20 mM tastant; assay type: cell-based, human; details: the remaining nineteen (KCl) or eighteen receptors
Method: as §1, §2, §3, §4

Structure (SMILES)	TAS2R7 bitter taste receptor activity (changes in intracellular calcium) (TAS2R7)	TAS2R10 bitter taste receptor activity (changes in intracellular calcium) (TAS2R10)	TAS2R13 bitter taste receptor activity (changes in intracellular calcium) (TAS2R13)	TAS2R45 bitter taste receptor activity (changes in intracellular calcium) (TAS2R45)	TAS2R46 bitter taste receptor activity (changes in intracellular calcium) (TAS2R46)	TAS2R55 bitter taste receptor activity (changes in intracellular calcium) (TAS2R55)	functional response of the remaining (non-responding) receptors of the panel, threshold [1]	pEC50 (TAS2R13; increasing concentrations of KCl, TAS2R13 cell line (FIG. 3), read-out: EC50 value, activation of TAS2R13)
CC1=CC(=O)NS(=O)(=O)O1 [Acesulfame K]	did not induce	did not induce	induced	did not induce	did not induce	did not induce	≤ 40%	–
[Cl-].[K+] [KCl, potassium chloride]	did not induce	did not induce	induced	did not induce	did not induce	did not induce	≤ 40%	1.82 to 2.30
CC(O)C(=O)[O-].[K+] (stereo not shown) [Potassium lactate, potassium lactate]	did not induce	did not induce	induced	did not induce	induced	did not induce	≤ 40%	–
